The NIST ThermoML archive (doi:10.1016/j.jct.2015.12.028)
± gives the expanded uncertainty stated by the source.

Details: Liquid, light scattering

CCCCCCCC(=O)OCC [ethyl octanoate]
Details | speed of sound [m/s]
293.25 K, 100 kPa | 1281 ± 13
293.65 K, 1000 kPa | 1284 ± 13
293.67 K, 2510 kPa | 1290.6 ± 13
293.69 K, 4020 kPa | 1296.8 ± 13
293.72 K, 5520 kPa | 1301 ± 13
293.75 K, 6980 kPa | 1307.1 ± 13
293.77 K, 8490 kPa | 1313.5 ± 13
293.77 K, 10010 kPa | 1325.8 ± 13
303.05 K, 100 kPa | 1245.9 ± 12
303.08 K, 8480 kPa | 1288.6 ± 13
303.13 K, 7040 kPa | 1280.7 ± 13
303.14 K, 3980 kPa | 1263.7 ± 13
303.15 K, 1030 kPa | 1249.1 ± 13
303.15 K, 2510 kPa | 1257.8 ± 13
303.15 K, 5520 kPa | 1273.7 ± 13
303.18 K, 10000 kPa | 1295.5 ± 13
313.07 K, 100 kPa | 1211 ± 12
313.15 K, 1000 kPa | 1214.2 ± 12
313.28 K, 9990 kPa | 1263.2 ± 13
313.38 K, 8530 kPa | 1257.4 ± 13
313.39 K, 5500 kPa | 1240.3 ± 12
313.4 K, 2510 kPa | 1223.2 ± 12
313.4 K, 4060 kPa | 1230.6 ± 12
313.41 K, 6980 kPa | 1249.6 ± 13
322.88 K, 100 kPa | 1176.3 ± 12
323.19 K, 8540 kPa | 1227.3 ± 12
323.29 K, 10100 kPa | 1231.2 ± 12
323.33 K, 1200 kPa | 1185.7 ± 12
323.35 K, 2490 kPa | 1190.8 ± 12
323.35 K, 3970 kPa | 1197.8 ± 12
323.35 K, 5510 kPa | 1205.3 ± 12
323.35 K, 7060 kPa | 1215 ± 12
332.39 K, 9980 kPa | 1202.3 ± 12
332.49 K, 8520 kPa | 1194.3 ± 12
332.64 K, 7040 kPa | 1183.5 ± 12
332.65 K, 5510 kPa | 1175.2 ± 12
332.67 K, 2480 kPa | 1158.3 ± 12
332.67 K, 4030 kPa | 1167.5 ± 12
332.68 K, 980 kPa | 1149.1 ± 12
333 K, 100 kPa | 1141.8 ± 11
342.6 K, 890 kPa | 1113.2 ± 11
342.61 K, 4000 kPa | 1133.9 ± 11
342.64 K, 2530 kPa | 1124.1 ± 11
342.71 K, 5490 kPa | 1142.7 ± 11
342.74 K, 8510 kPa | 1163.8 ± 12
342.77 K, 6990 kPa | 1152.8 ± 12
342.94 K, 9970 kPa | 1168.8 ± 12
343.12 K, 100 kPa | 1107.4 ± 11
352.36 K, 100 kPa | 1073.3 ± 11
353.44 K, 10120 kPa | 1135.6 ± 11
353.54 K, 2480 kPa | 1088 ± 11
353.54 K, 6990 kPa | 1116 ± 11
353.54 K, 8520 kPa | 1129.3 ± 11
353.56 K, 1030 kPa | 1080.3 ± 11
353.58 K, 5480 kPa | 1103.2 ± 11
353.6 K, 4000 kPa | 1096.3 ± 11
363.16 K, 8500 kPa | 1095.2 ± 11
363.19 K, 100 kPa | 1039.3 ± 10
363.19 K, 1070 kPa | 1047.2 ± 11
363.19 K, 7030 kPa | 1083.1 ± 11
363.21 K, 2520 kPa | 1053.8 ± 11
363.21 K, 4080 kPa | 1062 ± 11
363.21 K, 5520 kPa | 1071.3 ± 11
363.26 K, 10030 kPa | 1104.7 ± 11
372.7 K, 2510 kPa | 1022.9 ± 10
372.73 K, 3980 kPa | 1033.3 ± 10
372.75 K, 8570 kPa | 1067.6 ± 11
372.79 K, 100 kPa | 1005.6 ± 10
372.79 K, 1040 kPa | 1013.2 ± 10
372.82 K, 5530 kPa | 1046.7 ± 11
372.82 K, 6960 kPa | 1055.2 ± 11
372.95 K, 10040 kPa | 1074.2 ± 11
382.73 K, 7000 kPa | 1020.4 ± 10
382.8 K, 5550 kPa | 1012.8 ± 10
382.82 K, 4060 kPa | 998.99 ± 10
382.9 K, 2540 kPa | 988.47 ± 9.9
382.95 K, 100 kPa | 972.04 ± 9.8
382.95 K, 1050 kPa | 980.18 ± 9.9
383.03 K, 8530 kPa | 1028.1 ± 10
383.13 K, 9970 kPa | 1042.4 ± 10
391.81 K, 8490 kPa | 1002.4 ± 10
391.91 K, 9990 kPa | 1015 ± 10
392.15 K, 7010 kPa | 991.89 ± 10
392.29 K, 5490 kPa | 982.56 ± 9.9
392.32 K, 100 kPa | 938.67 ± 9.4
392.32 K, 1010 kPa | 945.16 ± 9.5
392.33 K, 2550 kPa | 958.2 ± 9.6
392.33 K, 4070 kPa | 971.34 ± 9.8
402.89 K, 4000 kPa | 940.63 ± 9.5
402.9 K, 7020 kPa | 959.16 ± 9.7
402.91 K, 100 kPa | 905.5 ± 9.1
402.91 K, 1000 kPa | 915.87 ± 9.2
402.91 K, 2490 kPa | 928.04 ± 9.3
402.91 K, 8480 kPa | 970.85 ± 9.8
402.92 K, 10030 kPa | 980.74 ± 9.9
402.93 K, 5470 kPa | 948.7 ± 9.6
412.66 K, 8500 kPa | 941.83 ± 9.5
412.76 K, 10040 kPa | 953.27 ± 9.6
412.87 K, 7050 kPa | 922.57 ± 9.3
413.17 K, 5530 kPa | 910.63 ± 9.2
413.21 K, 100 kPa | 872.52 ± 8.8
413.21 K, 1080 kPa | 878.09 ± 8.8
413.21 K, 4060 kPa | 901.97 ± 9.1
413.22 K, 2570 kPa | 890.98 ± 9
423.24 K, 8520 kPa | 908.5 ± 9.2
423.29 K, 7010 kPa | 892.99 ± 9
423.3 K, 5530 kPa | 882.56 ± 8.9
423.31 K, 2520 kPa | 857.92 ± 8.6
423.32 K, 100 kPa | 839.73 ± 8.5
423.32 K, 1150 kPa | 848.64 ± 8.6
423.44 K, 10060 kPa | 919.28 ± 9.3
423.53 K, 4090 kPa | 870.32 ± 8.8
432.95 K, 5520 kPa | 847.49 ± 8.6
432.96 K, 8480 kPa | 875.16 ± 8.8
433.06 K, 10010 kPa | 888.66 ± 9
433.09 K, 7010 kPa | 859.4 ± 8.7
433.41 K, 2490 kPa | 823.86 ± 8.3
433.44 K, 100 kPa | 807.14 ± 8.1
433.44 K, 1010 kPa | 813.1 ± 8.2
433.84 K, 4510 kPa | 835.67 ± 8.4
442.69 K, 8510 kPa | 841.83 ± 8.5
442.9 K, 7010 kPa | 829.81 ± 8.4
442.99 K, 10020 kPa | 857.21 ± 8.7
443.15 K, 5510 kPa | 817.42 ± 8.2
443.16 K, 3990 kPa | 805.02 ± 8.1
443.51 K, 2510 kPa | 790.8 ± 8
443.55 K, 100 kPa | 774.74 ± 7.8
443.55 K, 990 kPa | 780.57 ± 7.9
452.41 K, 8480 kPa | 813.49 ± 8.2
452.7 K, 7010 kPa | 798.22 ± 8.1
453.15 K, 5520 kPa | 789.35 ± 8
453.41 K, 10010 kPa | 826.34 ± 8.3
453.47 K, 4510 kPa | 776.37 ± 7.8
453.61 K, 2490 kPa | 762.74 ± 7.7
453.66 K, 100 kPa | 742.53 ± 7.5
453.66 K, 1010 kPa | 749.03 ± 7.6
462.5 K, 7010 kPa | 772.63 ± 7.8
463.14 K, 8480 kPa | 783.19 ± 7.9
463.15 K, 5520 kPa | 760.28 ± 7.7
463.24 K, 10010 kPa | 795.41 ± 8
463.71 K, 2490 kPa | 730.68 ± 7.4
463.78 K, 100 kPa | 710.51 ± 7.2
463.78 K, 1010 kPa | 715.5 ± 7.2
463.79 K, 4510 kPa | 744.72 ± 7.5
472.07 K, 8500 kPa | 760.99 ± 7.7
472.09 K, 1040 kPa | 688.23 ± 7
472.09 K, 6960 kPa | 745.31 ± 7.5
472.11 K, 2530 kPa | 704.34 ± 7.1
472.14 K, 5460 kPa | 730.7 ± 7.4
472.15 K, 4000 kPa | 718.2 ± 7.3
472.17 K, 10000 kPa | 773.29 ± 7.8
473.09 K, 100 kPa | 678.69 ± 6.9

Details | speed of sound [m/s]
293.73 K | 1275.7 ± 13
302.98 K | 1243 ± 12
313.53 K | 1206.1 ± 12
323.27 K | 1173.1 ± 12
332.65 K | 1138.5 ± 11
343.2 K | 1103.8 ± 11
352.53 K | 1069.9 ± 11
363.28 K | 1035.2 ± 10
372.96 K | 1001.9 ± 10
383 K | 969.3 ± 9.7
392.03 K | 936.3 ± 9.4
403.14 K | 901.4 ± 9.1
413.12 K | 869.5 ± 8.8
423.11 K | 835.7 ± 8.4
433.2 K | 801.1 ± 8.1
443.05 K | 770.7 ± 7.8
453.11 K | 738.5 ± 7.5
463.17 K | 705.5 ± 7.1
472.16 K | 675 ± 6.8
